≈ marks a conversion by molar mass, not a printed value.

The text below walks through data of article PMC11312933, “Mystery of the Passerini Reaction for the Synthesis of the Antimicrobial Peptidomimetics against Nosocomial Pathogenic Bacteria” (International Journal of Molecular Sciences, 2024).

Data set [1] has as its system BALB/c3T3 mouse embryonic fibroblast cell line. The data set is described as follows: MTT cytotoxicity assay. On the technique in general: Tetrazolium assays rely on reduction of a dye to a coloured formazan, in cell work by metabolically active cells.
Procedure: (§1) The cytotoxic effects of the tested peptidomimetics 1–16 on BALB/c3T3 mouse fibroblast cells were determined using the MTT assay after 24 h of incubation at five different concentrations (1, 2, 4, 6, and 8 µg/mL). The MTT test is based on the ability of the mitochondrial dehydrogenase enzymes to convert an orange, water-soluble tetrazolium salt (3-(4,5-dimethylthiazol-2-yl)-2,5-diphenyltetrazolium bromide) into an insoluble formazan, which is a dark blue product of the above reaction. After dissolving the formazan crystals in DMSO or isopropanol, a coloured solution was formed, the intensity of which is measured spectrophotometrically within the wavelength range of 492–570 nm. The amount of coloured reduced MTT is proportional to the oxidative activity of the cell’s mitochondria and, under strictly defined experimental conditions, to the number of metabolically active (living) cells in the population. The MTT test can also be used to determine cell viability in populations of cells that no longer divide but are metabolically active.
Data set [2] deals with E. coli (K12 (ATCC 25404), R2 (ATCC 39544), R3 (ATCC 11775), R4 (ATCC 39543)), A. baumannii (ATCC 17978), P. aeruginosa (ATCC 15442), E. cloacae (ATCC 49141) …. The data set is described as follows: Minimum inhibitory concentration (MIC), microtiter plate method with resazurin. It counts as cell-based, S. aureus. As to conditions: Gram-negative and Gram-positive bacteria. From the text:
The reference bacterial strains of E.coli (K12 ATCC 25404, R2 ATCC 39544, R3 ATCC 11775, and R4 ATCC 39543) and Staphylococcus aureus strain (ATCC 23235), as well as Acinetobacter baumannii (ATCC 17978), Pseudomonas aeruginosa (ATCC 15442), and Enterobacter cloacae (ATCC 49141) were obtained from LGC Standards U.K. and were used according to the recommendation of ISO 11133 [30]. These strains were used to test the antibacterial activity of the analysed compounds by determining the minimum inhibitory concentration (MIC) and minimum bactericidal concentration (MBC), as described in [8, 9, 26, 27, 28, 29, 30, 31]. The results are shown in Figures S33 and S34 in the Supplementary Materials.
MIC and MBC were estimated using a microtiter plate method with sterile 48- or 96-well plates, which is precisely described in [9]. Briefly, MIC and MBC, defined as the lowest concentration of a bacteriostatic agent, were determined. Briefly, 50 μL of the analysed compounds and the appropriate bacterial strains were added to the first row of the plate. Then, 25 μL of sterile Tryptone Soya Broth (TSB) medium was added to the other wells, and serial dilutions were performed. Subsequently, 200 μL of inoculated TSB medium containing resazurin (0.02 mg/mL) as an indicator was added to all wells. TSB medium was inoculated with 10^6 colony-forming units (CFU)/mL (approximately 0.5 McFarland units) of the bacterial strains. The plates were incubated at 30 °C for 24 h. Changes in colour from blue to pink or yellowish with turbidity were considered positive, and the lowest concentration at which no visible change in colour occurred was recorded as the MIC, according to Kowalczyk et al.. Each experiment (both MIC and MBC) was repeated at least three times.
For orientation: Alamar Blue is a resazurin reagent that responds to reducing activity.

Data set [3] can be described thus: MTT cytotoxicity assay. To be noted: mouse.
Procedure: as §1
The subject of data set [4] is S. aureus strain (ATCC 23235). It counts as cell-based, Staphylococcus aureus. As to conditions: S. aureus (ATCC 23235).
Data set [5] deals with S. aureus. As to conditions: against S. aureus; cited from earlier work.

With `COc1ccc(CNC(=O)C(OC(=O)Cc2ccccc2)c2ccccc2OC(C)=O)cc1` (stereo not drawn) [Compound 14, 1-(2-Acetoxyphenyl)-2-((4-methoxybenzyl)amino)-2-oxoethyl 2-phenylacetate], the IC50 (commonly the concentration needed to halve the response being measured) in data set [1] (Mus musculus, BALB/c3T3, 24 h, read-out: IC50 for fibroblasts) stood at 7.22 µg/mL (≈ 16.1 µM).

Turning to `CC(=O)Oc1cc(Br)ccc1C(OC(=O)Cc1ccccc1)C(=O)NCc1ccccc1` (stereo not drawn), the melting point (in general, the temperature of the solid-liquid transition) was in the range of 122 to 124 °C.

In the case of `COc1ccc(CNC(=O)C(OC(=O)Cc2ccccc2)c2c(OC(C)=O)ccc3ccc(=O)oc23)cc1` (stereo not drawn) [Compound 4, 1-(7-Acetoxy-2-oxo-2H-chromen-8-yl)-2-((4-methoxybenzyl)amino)-2-oxoethyl 2-phenylacetate], the melting point lay within 57 to 59 °C. In addition, the “spectrum of antibacterial activity” value in data set [2] is listed as “broad-spectrum activity”.

Regarding `CC(=O)Oc1ccc2c(C(F)(F)F)cc(=O)oc2c1C(OC(=O)Cc1ccccc1)C(=O)NCc1ccccc1` (stereo not drawn), the melting point was in the range of 54 to 57 °C.

Regarding `CC(=O)Oc1ccccc1C(OC(=O)Cc1ccccc1)C(=O)NCc1ccccc1` (stereo not drawn) [Compound 15, 1-(2-Acetoxyphenyl)-2-(benzylamino)-2-oxoethyl 2-phenylacetate], in data set [3], the viability (commonly a read-out of living cells in per cent, often relative to untreated cells) at 24 h, 2 µg/mL was 66.5%.

Compound `COc1ccc(CNC(=O)C(O)c2ccc(Br)cc2O)cc1` (stereo not drawn) gave a melting point of 96 to 100 °C.

With `CC(=O)Oc1ccc2c(C(F)(F)F)cc(=O)oc2c1C(OC(=O)Cc1ccccc1)C(=O)NCc1ccc(F)cc1` (stereo not drawn), the melting point lay within 51 to 55 °C.

`CC(=O)Oc1ccc2c(C)cc(=O)oc2c1C(OC(=O)Cc1ccccc1)C(=O)NCc1ccc(F)cc1` (stereo not drawn) [Compound 6, 1-(7-Acetoxy-4-methyl-2-oxo-2H-chromen-8-yl)-2-((4-fluorobenzyl)amino)-2-oxoethyl 2-phenylacetate] came in with a melting point of 56 to 59 °C. The compound also came in with a viability at 24 h, 2 µg/mL in data set [3] of 87%.

Take `COc1ccc(CNC(=O)C(OC(=O)Cc2ccccc2)c2c(OC(C)=O)ccc3c(C(F)(F)F)cc(=O)oc23)cc1` (stereo not drawn) [Compound 9, 1-(7-Acetoxy-2-oxo-4-(trifluoromethyl)-2H-chromen-8-yl)-2-((4-methoxybenzyl)amino)-2-oxoethyl 2-phenylacetate]: the melting point fell in the range of 54 to 58 °C. In addition, the “activity against S. aureus” value in data set [4] is given as “very potent activity”. In addition, the “spectrum of antibacterial activity” value in data set [2] was “broad-spectrum activity”.

Consider `CC(=O)Oc1ccc2ccc(=O)oc2c1C(OC(=O)Cc1ccccc1)C(=O)NCc1ccccc1` (stereo not drawn) [Compound 3, 1-(7-Acetoxy-2-oxo-2H-chromen-8-yl)-2-(benzylamino)-2-oxoethyl 2-phenylacetate], for which the melting point is 64 to 66 °C. In addition, the “spectrum of antibacterial activity” value in data set [2] is “broad-spectrum activity”.

For `Cc1cc(=O)oc2c(C)c(OCc3ccc(-c4ccccc4)cc3)ccc12` [Compound B], the IC50 in data set [5] was 3 µM.

`CC(=O)Oc1ccc2ccc(=O)oc2c1C(OC(=O)Cc1ccccc1)C(=O)NCc1ccc(F)cc1` (stereo not drawn): the melting point fell in the range of 61 to 63 °C.

Take `Cc1onc(-c2ccccc2Cl)c1C(=O)N[C@@H]1C(=O)N2[C@@H]1SC(C)(C)[C@@H]2C(=O)O` [cloxacillin, reference compound]: the viability in data set [3] (BALB/c3T3 mouse embryonic fibroblast cells) is 85 to 89.9%.

`COc1ccc(CNC(=O)C(OC(=O)Cc2ccccc2)c2c(OC(C)=O)ccc3c(C)cc(=O)oc23)cc1` (stereo not drawn) [Compound 2, 1-(7-Acetoxy-4-methyl-2-oxo-2H-chromen-8-yl)-2-((4-methoxybenzyl)amino)-2-oxoethyl 2-phenylacetate] returned a melting point of 66 to 68 °C. Further, in data set [2], the “spectrum of antibacterial activity” value was “broad-spectrum activity”.

With `COc1ccc(CNC(=O)C(OC(=O)Cc2ccccc2)c2ccc(Br)cc2OC(C)=O)cc1` (stereo not drawn), the melting point is 107 to 108 °C.

For the compound `Cc1cc(=O)oc2cc(OCc3ccc(-c4ccccc4)cc3)ccc12` [A], the IC50 in data set [5] was 9.7 µM.

Turning to “1-(7-Acetoxy-4-methyl-2-oxo-2H-chromen-8-yl)-2-((4-fluorobenzyl)amino)-2-oxoethyl 2-phenylacetate [Compound 1]”, in data set [2], the “spectrum of antibacterial activity” value is recorded as “broad-spectrum activity”. In data set [1] (after 24 h of incubation), this compound gave an IC50 for fibroblasts of 4.26 µg/mL.
